Measurements reported in the NIST ThermoML archive (doi:10.1021/acs.jced.5b00011).
Numbers after ± are expanded uncertainties.

Conditions: Liquid, Ebulliometric method (Recirculating still)

For `CC(=O)N(C)C` [N,N-dimethylethanamide], the “vapor or sublimation pressure” value (439.25 K) was 101.33 ± 0.58 kPa.
In the case of `c1ccccc1` [benzene], the “vapor or sublimation pressure” value (353.25 K) is reported as 101.33 ± 0.55 kPa.
For `C1CCCCC1` [cyclohexane], the “vapor or sublimation pressure” value (353.85 K) was 101.33 ± 0.55 kPa.
For `C1=CCCCC1` [cyclohexene], the “vapor or sublimation pressure” value (356.15 K) was 101.33 ± 0.55 kPa.
